{
  "source": "patent US5364842A",
  "about": "(priority 1993, dated 1994)",
  "target": "N-type or omega HVA neuronal calcium channels; calcium currents in N1E-115 neuroblastoma cells (Mus musculus, UniProt O55017)",
  "sequence (O55017 whole entry)": "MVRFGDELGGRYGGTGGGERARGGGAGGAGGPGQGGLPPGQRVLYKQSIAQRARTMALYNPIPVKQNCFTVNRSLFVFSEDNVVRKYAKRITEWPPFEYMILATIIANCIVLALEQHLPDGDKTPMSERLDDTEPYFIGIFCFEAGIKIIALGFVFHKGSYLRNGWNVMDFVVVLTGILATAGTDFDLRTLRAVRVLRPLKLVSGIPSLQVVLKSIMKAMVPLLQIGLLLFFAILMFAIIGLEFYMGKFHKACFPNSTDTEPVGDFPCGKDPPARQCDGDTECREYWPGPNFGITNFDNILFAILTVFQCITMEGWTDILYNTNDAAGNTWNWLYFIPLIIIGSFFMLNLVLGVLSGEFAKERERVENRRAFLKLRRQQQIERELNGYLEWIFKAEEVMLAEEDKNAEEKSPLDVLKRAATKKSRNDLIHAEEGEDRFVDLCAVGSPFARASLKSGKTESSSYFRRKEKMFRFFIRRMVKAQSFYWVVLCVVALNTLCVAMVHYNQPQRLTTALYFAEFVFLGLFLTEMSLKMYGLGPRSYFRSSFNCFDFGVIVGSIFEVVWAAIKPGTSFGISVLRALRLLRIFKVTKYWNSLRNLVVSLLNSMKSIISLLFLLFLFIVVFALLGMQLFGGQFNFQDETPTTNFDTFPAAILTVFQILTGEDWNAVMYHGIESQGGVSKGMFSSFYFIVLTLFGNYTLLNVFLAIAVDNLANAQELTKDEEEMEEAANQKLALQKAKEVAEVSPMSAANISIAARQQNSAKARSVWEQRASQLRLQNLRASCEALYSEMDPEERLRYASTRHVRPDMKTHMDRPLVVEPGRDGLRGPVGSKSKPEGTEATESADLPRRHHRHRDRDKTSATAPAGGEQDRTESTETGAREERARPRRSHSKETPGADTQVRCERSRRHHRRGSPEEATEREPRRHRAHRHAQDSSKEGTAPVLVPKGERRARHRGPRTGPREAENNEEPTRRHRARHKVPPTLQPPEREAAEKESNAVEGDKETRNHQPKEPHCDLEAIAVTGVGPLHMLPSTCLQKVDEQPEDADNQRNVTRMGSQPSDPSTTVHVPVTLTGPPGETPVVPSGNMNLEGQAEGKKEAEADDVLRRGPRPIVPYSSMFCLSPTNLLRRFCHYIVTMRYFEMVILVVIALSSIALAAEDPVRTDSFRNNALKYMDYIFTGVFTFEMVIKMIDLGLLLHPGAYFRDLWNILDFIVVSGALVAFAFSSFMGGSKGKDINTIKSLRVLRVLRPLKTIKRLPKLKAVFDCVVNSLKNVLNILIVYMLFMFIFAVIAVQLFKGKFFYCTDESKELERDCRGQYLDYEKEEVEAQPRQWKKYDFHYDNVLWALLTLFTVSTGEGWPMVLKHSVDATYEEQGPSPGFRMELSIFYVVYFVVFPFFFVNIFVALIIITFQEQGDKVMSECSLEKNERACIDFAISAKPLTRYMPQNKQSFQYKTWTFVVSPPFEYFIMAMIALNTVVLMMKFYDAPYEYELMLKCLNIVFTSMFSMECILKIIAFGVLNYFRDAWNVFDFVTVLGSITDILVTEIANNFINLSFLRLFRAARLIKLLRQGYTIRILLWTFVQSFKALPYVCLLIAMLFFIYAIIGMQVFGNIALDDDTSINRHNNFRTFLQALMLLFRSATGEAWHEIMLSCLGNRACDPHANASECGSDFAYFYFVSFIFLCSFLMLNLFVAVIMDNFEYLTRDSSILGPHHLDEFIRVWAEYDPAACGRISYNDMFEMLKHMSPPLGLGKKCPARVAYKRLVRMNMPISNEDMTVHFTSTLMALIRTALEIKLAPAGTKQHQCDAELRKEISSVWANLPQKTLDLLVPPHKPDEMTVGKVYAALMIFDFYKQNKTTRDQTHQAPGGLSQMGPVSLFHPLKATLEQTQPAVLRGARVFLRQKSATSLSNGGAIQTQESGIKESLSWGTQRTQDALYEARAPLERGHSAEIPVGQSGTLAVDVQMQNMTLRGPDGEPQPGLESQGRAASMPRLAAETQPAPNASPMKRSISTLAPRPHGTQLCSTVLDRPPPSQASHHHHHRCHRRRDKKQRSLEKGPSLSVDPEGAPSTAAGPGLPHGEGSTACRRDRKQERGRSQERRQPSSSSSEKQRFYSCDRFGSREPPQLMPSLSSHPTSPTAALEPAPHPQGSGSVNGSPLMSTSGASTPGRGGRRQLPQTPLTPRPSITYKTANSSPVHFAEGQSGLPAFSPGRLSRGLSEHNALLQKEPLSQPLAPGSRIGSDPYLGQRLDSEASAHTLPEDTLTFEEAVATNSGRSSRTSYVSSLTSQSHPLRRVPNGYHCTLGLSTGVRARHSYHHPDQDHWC",
  "sequence (O08532 25-956 partner limits assumed)": "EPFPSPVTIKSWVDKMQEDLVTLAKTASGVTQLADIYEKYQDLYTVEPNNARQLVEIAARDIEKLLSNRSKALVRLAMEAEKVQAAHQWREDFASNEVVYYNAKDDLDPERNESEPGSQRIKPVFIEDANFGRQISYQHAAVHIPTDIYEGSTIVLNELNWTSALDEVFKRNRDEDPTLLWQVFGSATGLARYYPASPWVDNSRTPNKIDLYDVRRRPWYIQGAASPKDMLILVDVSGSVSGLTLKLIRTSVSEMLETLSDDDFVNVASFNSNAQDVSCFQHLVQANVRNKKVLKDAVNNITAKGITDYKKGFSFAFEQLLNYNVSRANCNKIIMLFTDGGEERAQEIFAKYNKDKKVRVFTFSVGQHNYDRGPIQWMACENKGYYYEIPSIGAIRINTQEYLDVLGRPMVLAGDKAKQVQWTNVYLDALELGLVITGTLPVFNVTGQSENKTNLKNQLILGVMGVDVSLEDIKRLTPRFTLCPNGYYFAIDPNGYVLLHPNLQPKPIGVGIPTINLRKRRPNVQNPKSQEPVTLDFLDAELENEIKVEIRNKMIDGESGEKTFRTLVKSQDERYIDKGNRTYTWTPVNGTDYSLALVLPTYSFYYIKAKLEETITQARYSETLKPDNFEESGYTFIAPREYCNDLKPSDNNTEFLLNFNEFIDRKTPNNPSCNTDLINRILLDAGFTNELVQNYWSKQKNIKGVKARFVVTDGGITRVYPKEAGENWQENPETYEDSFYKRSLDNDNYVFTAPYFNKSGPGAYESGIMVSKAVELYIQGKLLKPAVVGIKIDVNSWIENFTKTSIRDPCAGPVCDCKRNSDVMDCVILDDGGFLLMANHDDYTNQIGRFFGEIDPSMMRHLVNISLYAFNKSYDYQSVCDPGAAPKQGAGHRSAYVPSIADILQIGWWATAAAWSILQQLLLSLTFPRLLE",
  "sequence (O08532 957-1103 partner limits assumed)": "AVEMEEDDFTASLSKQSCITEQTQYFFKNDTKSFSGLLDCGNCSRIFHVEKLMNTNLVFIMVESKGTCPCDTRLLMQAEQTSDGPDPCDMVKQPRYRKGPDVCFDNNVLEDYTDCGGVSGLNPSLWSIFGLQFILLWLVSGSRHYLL",
  "assay_type": "cell-based",
  "note": "Bridge positions count the residues as written; N and C are the ends. Square brackets hold non-standard residues; d marks the D form. Peptide text beside a SMILES is read from it. Hyp = O=C(O)[C@@H]1C[C@@H](O)CN1",
  "data": [
    {"smiles": "CC[C@H](C)[C@@H]1NC(=O)[C@H](CO)NC(=O)[C@H]([C@@H](C)O)NC(=O)[C@H](C(C)C)NC(=O)CNC(=O)[C@@H]2CSSC[C@@H]3NC(=O)[C@H](CCCNC(=N)N)NC(=O)CNC(=O)[C@H](CSSC[C@H](N)C(=O)N[C@@H](CCCNC(=N)N)C(=O)N[C@@H](CO)C(=O)N[C@@H](CO)C(=O)NCC(=O)N[C@@H](CO)C(=O)N4C[C@H](O)C[C@H]4C(=O)N2)NC(=O)[C@H](CSSC[C@@H](C(=O)N[C@H](C(N)=O)[C@@H](C)O)NC(=O)[C@H](CCCCN)NC(=O)CNC(=O)[C@H](CCCNC(=N)N)NC(=O)[C@H](Cc2ccc(O)cc2)NC3=O)NC1=O", "note": "[SNX-157] (H-CRSSGS[Hyp]CGVTSICCGRCYRGKCT-NH2; disulfide 1-15, 8-18, 14-23)", "values": [
      {"measurement": "IC50, inhibition of calcium currents in N1E-115 neuroblastoma cells", "result": "> 20", "unit": "μM"}
    ]}
  ]
}
